Results reported in ChEMBL document CHEMBL1145063, “Structure-based design of a macrocyclic inhibitor for peptide deformylase” (J Med Chem, 2003).
≈ marks a conversion by molar mass, not a printed value.

Tests used:
Peptide deformylase [1] = target: T1, Peptide deformylase (Escherichia coli, UniProt Q9JN24); test: Binding affinity against Co(II)-substituted Escherichia coli peptide deformylase was determined
T1 sequence (Q9JN24 whole entry): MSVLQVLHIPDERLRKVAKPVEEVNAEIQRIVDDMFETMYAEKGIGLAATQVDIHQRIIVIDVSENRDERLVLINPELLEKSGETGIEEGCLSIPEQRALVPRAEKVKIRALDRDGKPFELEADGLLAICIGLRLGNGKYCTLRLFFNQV

Bacillus subtilis = test: In vitro minimal inhibitory concentration against Bacillus subtilis was determined; format: functional
Escherichia coli = test: In vitro minimal inhibitory concentration against Escherichia coli was determined; format: functional
Peptide deformylase [2] = target: T1, Peptide deformylase; test: Inhibitory concentration against peptide deformylase was determined

Row | SMILES | Ki (Peptide deformylase [1]) [nM] | MIC (Bacillus subtilis) [µM] | MIC (Escherichia coli) [µM] | IC50 (Peptide deformylase [2]) [nM]
1 | CC(C)(C)[C@@H]1NC(=O)C(CN(O)C=O)CCCCCCCCCNC1=O (some centres undefined) | 0.67 | 4 (≈ 1.48 µg/mL) | 32 (≈ 11.8 µg/mL) | 
2 | CCCCC(CN(O)C=O)C(=O)N[C@H](C(=O)N(C)C)C(C)(C)C (some centres undefined) |  |  |  | 7
